US20250034182A1, “PHOSPHOLIPID COMPOUNDS AND METHODS OF MAKING AND USING THE SAME” (priority 2021, published 2025)

Key:
Assay type in all cases: cell-based
[1] = tested on: Recombinant Respiratory Syncytial virus strain A2 containing the firefly luciferase reporter (RSV-Fluc) in NHBE cells; test: RSV NHBE FLuc EC50 (Example I); conditions: human respiratory syncytial virus, 72 h, read-out: RSV NHBE FLuc EC50 (nM) (per Ex. I)
Source text: Normal human bronchial epithelial (NHBE) cells are purchased from Lonza (Walkersville, MD Cat #CC-2540) and maintained in Bronchial Epithelial Cell Growth Medium (BEGM) (Lonza, Walkersville, MD, Cat #CC-3170) with all provided supplements in the BulletKit. Cells are passaged 2-3 times per week to maintain sub-confluent densities and are used for experiments at passages 2-4.
Recombinant Respiratory Syncytial virus strain A2 containing the firefly luciferase reporter between the P and M genes (RSV-Fluc, 6.3×10^6 TCID50/mL) is purchased from Viratree (Durham, NC, Cat #R^145).
NHBE cells (5×10^3/well) are seeded in 100 μL white wall/clear bottom 96-well plates (Corning) with culture medium and are incubated for 24 hours at 37° C. with 5% CO2. On the following day, three-fold serial dilutions of compounds prepared in DMSO are added to the wells using the HP D300e digital dispenser with normalization to the highest concentration of DMSO in all wells. The cells are then infected with RSV-Fluc diluted with BEGM media at an MOI of 0.1 for a final volume of 200 μL media/well. Uninfected and untreated wells are included as controls to determine compound efficacy against RSV-Fluc. Following incubation with compound and virus for three days at 37° C. with 5% CO2, 100 μL of culture supernatant is removed from each well and replaced with 100 μL of ONE-Glo luciferase reagent (Promega, Madison, WI, Cat #E6110). The plates are gently mixed by rocking for 10 minutes at 21° C. and luminescence signal is measured using an Envision plate reader (PerkinElmer). Values are normalized to the uninfected and infected DMSO controls (0% and 100% infection, respectively). Non-linear regression analysis is applied to determine the compound concentration at which 50% luminescence signal is reduced (EC50) using the XLfit4 add-in for MICROSOFT®EXCEL®. All experiments are performed in duplicate with two technical repeats each.

[2] = tested on: Respiratory syncytial virus recombinant with luciferase (RSV-Luc5) in NHBE cells; test: NHBE RSV-Luc5 384-well assay (EC50 RSVFLUC NHBE-384, Example U); conditions: human respiratory syncytial virus, 72 h, read-out: RSV FLuc NHBE 384 EC50 (v2) (nM) (per Ex. U)
Description: Normal Human Bronchial Epithelial (NHBE) cells were purchased from Lonza (Walkersville, MD Cat #CC2540) and maintained in BEGM Bronchial Epithelial Cell (Growth Medium BulletKit (Lonza CC-3170).
Cells were thawed, expanded, and were used for experiments at passage 2. Respiratory syncytial virus recombinant with luciferase (RSV-Luc5) (≥1×10^7 Infectious Units/ml (IU/ml) determined by TCID50) was purchased from Microbiologics (Saint Cloud, MN). Viral replication was determined in NHBE cells in the following manner.
(§1) Compounds are prepared in 100% DMSO in 384-well polypropylene plates (Greiner, Monroe, NC, Cat #784201) with 8 compounds per plate in grouped replicates of 4 at 10 serially diluted concentrations (1:3). The serially diluted compounds were transferred to low dead volume Echo plates (Labcyte, Sunnyvale, CA, Cat #LP-0200).
The test compounds were spotted to 384-well assay plates (Greiner, Monroe, NC, Cat #781091) at 200 nL per well. NHBE cells were harvested and suspended in BEGM Bronchial Epithelial Cell Growth Medium BulletKit and seeded to the pre-spotted assay plates at 5,000 cells per well in 30 μL. RSV-Luc5 virus was diluted in BEGM Bronchial Epithelial Cell Growth Medium BulletKit at 500,000 Infectious Units (IU) per mL and 10 μL per well was added to the assay plates containing cells and compounds, for an MOI of 1. The assay plates were incubated for 3 days at 37° C. and 5% CO2. At the end of incubation, One-Glo reagent (Promega, Madison, WI, Cat #E6120) was prepared. The assay plates and One-Glo reagent were equilibrated to room temperature for at least 15 minutes. 40 μL per well of One-Glo reagent was added and the plates were incubated at room temperature for 15 minutes before reading the luminescence signal on an EnVision multimode plate reader (Perkin Elmer, Waltham, MA). Remdesivir was used as positive control and DMSO was used as negative control. Values were normalized to the positive and negative controls (as 0% and 100% replication, respectively) and data was fitted using non-linear regression analysis by Gilead's dose response tool. The EC50 value for each compound was defined as the concentration reducing the viral replication by 50%.

[3] = RSV NHBE CC50 384 V2 (per Ex. U); conditions: human
[4] = tested on: Respiratory syncytial virus recombinant with luciferase (RSV-Luc5) in HEp-2 cells; test: HEp-2 RSV-Luc5 384-well assay (EC50 RSVFLUC Hep2-384 v2, Example V); conditions: human respiratory syncytial virus, HEp-2, 72 h, read-out: RSV Hep-2 FLuc EC50 (v2) (nM) (per Ex. V)
Source text: HEp-2 cell line was purchased from ATCC (Manassas, VA Cat #CCL-23) and maintained in Dulbecco's […] (DMEM) (Corning, New York, NY, Cat #15-018CM) supplemented with 10% fetal bovine serum (FBS) (Hyclone, Logan, UT, Cat #SH30071-03) and 1× Penicillin-Streptonycin-L-Glutamine (Corning, New York, NY, Cat #30-009-CI). Cells were passaged 2 times per week to maintain sub-confluent densities and were used for experiments at passage 5-20. Respiratory syncytial virus recombinant with luciferase (RSV-Luc5) (≥1×107 TCID50/ml) was purchased from Microbiologics (Saint Cloud, MN). Viral replication was determined in HEp-2 cells in the following manner.
as §1
The test compounds were spotted to 384-well assay plates (Greiner, Monroe, NC, Cat #781091) at 200 nL per well. HEp-2 cells were harvested and suspended in DMEM (supplemented with 10% FBS and 1× Penicillin-Streptomycin-L-Glutamine) and seeded to the pre-spotted assay plates at 4,000 cells per well in 30 μL. RSV-Luc5 viruses were diluted in DMEM (supplemented with 10% FBS and 1× Penicillin-Streptomycin-L-Glucamine) at 200,000 Infectious Units (IU) per mL and 10 μL per well was added to the assay plates containing cells and compounds, for an MOI=0.5. The assay plates were incubated for 3 days at 37° C. and 5% CO2. At the end of incubation, One-Glo reagent (Promega, Madison, WI, Cat #E6120) was prepared. The assay plates and One-Glo reagent were equilibrated to room temperature for at least 15 minutes. 40 μL per well of One-Glo reagent was added and the plates were incubated at room temp for 15 minutes before reading the luminescence signal on an EnVision multimode plate reader (Perkin Elmer, Waltham, MA). Remdesivir was used as positive control and DMSO was used as negative control. Values were normalized to the positive and negative controls (as 0% and 100% replication, respectively) and data was fitted using non-linear regression analysis by Gilead's dose response tool. The EC50 value for each compound was then determined as the concentration reducing the viral replication by 50%.

[5] = tested on: Human Rhinovirus 14 (HRV14) in H1-HeLa cells; test: H1-HeLa HRV-CTG EC50, HRV14 (Example Z); conditions: Rhinovirus B, HRV14, 96 h, MOI 1.0, 4 days, Celltiter-Glo, read-out: HRV14 HELA EC50 (nM) (per Ex. Z)
Source text: (§2) H1-Hela cell line (ATCC, Manassas, VA, Cat #CRL-1958) was maintained in Dulbecco's […] (DMEM) (Corning, New York, NY, Cat #15-018CM) supplemented with 10% fetal bovine serum (FBS) (Hyclone, Logan, UT, Cat #SH30071-03), and 1× Penicillin-Streptomycin-L-Glutamine (Coming, New York, NY, Cat #30-009-C1). Cells were passaged 2 times per week to maintain sub-confluent densities and were used for experiments at passage 5-30. The Human Rhinovirus 1B (HRV1B) (ATCC, Manassas, VA, Cat #VR-1645), Human Rhinovirus 14 (HRV14) (ATCC, Manassas, VA, Cat #VR-284), and Human Rhinovirus 16 (HRV16) (ATCC, Manassas, VA, Cat #BR-283) was obtained through ATCC. Viral infection was monitored by determining viability of H1-HeLa cells as described below.
as §1, with “Test molecules” for “Compounds”
(§3) The test compounds were spotted to 384-well assay plates (Greiner, Monroe, NC, Cat #781091) at 200 nL per well using an Echo acoustic dispenser (Labcyte, Sunnyvale, CA). H1-HeLa cells were harvested and suspended in DMEM (supplemented with 2% FBS and 1× Penicillin-Streptomycin-L-Glutamine) and seeded to the pre-spotted assay plates at 5,000 cells per well in 30 μL. HRV1B, HRV14, and HRV16 was diluted in DMEM (supplemented with 2% FBS and 1× Penicillin-Streptomycin-L-Glutamine) at 97.1 million Infectious Units (IU) per mL, 151 million IU per mL and 221 million IU per mL respectively. 10 μL of virus per well was added to the assay plates containing cells and compounds, for an MOI of 0.5, 1.0, and 0.25 respectively. The assay plates were incubated for 4 days at 37° C. and 5% CO2. At the end of incubation, Celltiter-Glo (Promega, Madison, WI, Cat #G7573) was prepared. The assay plates and Celltiter-Glo reagent were equilibrated to room temperature for at least 15 minutes. 40 μL per well of Celltiter-Glo reagent was added and the plates were incubated at room temperature for 15 minutes before reading the luminescence signal on an EnVision multimode plate reader (Perkin Elmer, Waltham, MA). Rupintrivir was used as positive control and DMSO was used as negative control. Values were normalized to the positive and negative controls (as 0% and 100% replication, respectively) and data was fitted using non-linear regression analysis by Gilead's dose response tool. The EC50 value for each compound was defined as the concentration reducing viral replication by 50%.

[6] = tested on: Human Rhinovirus 16 (HRV16) in H1-HeLa cells; test: H1-HeLa HRV-CTG EC50, HRV16 (Example Z); conditions: Rhinovirus A, HRV16, 96 h, MOI 0.25, 4 days, Celltiter-Glo, read-out: HRV 16 HELA EC50 (nM) (per Ex. Z)
Source text: as §2
as §1, with “Test molecules” for “Compounds”
as §3

[7] = tested on: Human Rhinovirus 1B (HRV1B) in H1-HeLa cells; test: H1-HeLa HRV-CTG EC50, HRV1B (Example Z); conditions: Rhinovirus A, 96 h, MOI 0.5, 4 days, Celltiter-Glo, read-out: HRV 1B HELA EC50 (nM) (per Ex. Z)
Source text: as §2
as §1, with “Test molecules” for “Compounds”
as §3

[8] = RSV HEP2-CC50-384-V2 (per Ex. V); conditions: human
[9] = tested on: dengue virus type 2 in Huh7 hepatoblastoma cells; test: Dengue Virus-2 Huh-7 EC50 (Example W); conditions: MOI of 0.07, CPE, neutral red dye, read-out: Dengue Virus-2 Huh-7 EC50 (nM) (per Ex. W)
Description: (§4) Huh7 hepatoblastoma cells were seeded onto 96-well plates and incubated at 37° C. with 5% CO2 overnight. The plates were seeded at a cell concentration that will yield >70% confluent monolayers in each well after overnight incubation. Eight 3-fold serial dilutions of compounds were diluted in test media (MEM supplemented with 2% FBS and 50 μg/mL gentamicin). The highest test compound concentration was 50 μg/mL. 100 μL of each concentration was added to 5 test wells on the 96-well plate. Of these 5 test wells, 3 wells of each dilution were infected with dengue virus type 2, diluted in test media (approximately 2000 CCID50 per well for an MOI of 0.07). Test medium (100 μL) with no virus was added to 2 wells to represent the uninfected cytotoxicity controls. Six additional infected wells received 100 μL media alone as untreated virus controls. Further, 100 μL of media alone was added to 6 uninfected wells to serve as uninfected, untreated controls. Cultures were incubated at 37° C.+5% CO2 until >80% CPE is observed. After cytopathic effect (CPE) is observed microscopically, 0.011% neutral red dye was added for approximately 2 hours. The neutral red dye was removed and wells were rinsed once with PBS to remove residual, unincorporated dye. A 50:50 Sorensen citrate buffer/ethanol solution was added and incubated at room temperature for >30 minutes with agitation, followed by measurement of neutral red dye using a spectrophotometer at 540 nm. The resulting optical density measurement was converted to percent signal of the infected, untreated cell control normalizing to virus controls. EC50 and CC50 values were determined by linear regression analysis.

in vitro = conditions: human
Description: as §4

Structure (SMILES) | EC50 [1] | EC50 [2] | CC50 at 3 days [3] | EC50 [4] | EC50 [5] | EC50 [6] | EC50 [7] | CC50 at 3 days [8] | EC50 [9] | CC50 (in vitro)
CCCCCCCCCCCCCCCCCCC[C@@H](COP(=O)(O)OC[C@@]1(C#N)O[C@@H](c2ccc3c(N)ncnn23)[C@H](O)[C@@H]1O)OCc1cc(F)cc(C#N)c1 [Compound 31, ((2R,3S,4R)-5-(4-aminopyrrolo[2,1-f][1,2,4]triazin-7-yl)-2-cyano-3,4-dihydroxytetrahydrofuran-2-yl)methyl ((S)-2-((3-cyano-5-fluorobenzyl)oxy)henicosyl) hydrogen phosphate] | 229 nM | 134 nM | 1900 nM | – | – | – | – | – | – | –
CCCCCCCCCCCCCCCOC[C@H](COP(=O)(O)OC[C@@]1(C#N)O[C@@H](c2ccc3c(N)ncnn23)[C@H](O)[C@@H]1O)OCc1cc(F)cc(C#N)c1 [Compound 99, ((2R,3S,4R,5S)-5-(4-aminopyrrolo[2,1-f][1,2,4]triazin-7-yl)-2-cyano-3,4-dihydroxytetrahydrofuran-2-yl)methyl ((R)-2-((3-cyano-5-fluorobenzyl)oxy)-3-(pentadecyloxy)propyl) hydrogen phosphate] | – | 47 nM | 1140 nM | 166 nM | 37 nM | 33 nM | 19 nM | 42.3 µM | – | –
CCCCCCCCCCCCCCOC[C@H](COP(=O)(O)OC[C@@]1(C#N)O[C@@H](c2ccc3c(N)ncnn23)[C@H](O)[C@@H]1O)Oc1ccc(C#N)cn1 [Compound 71] | 199 nM | – | – | 2580 nM | – | – | – | > 50 µM | 33000 nM | > 50 µM
